# Data taken from patent publication US8580579B2, “Hydrophilic and lipophilic rhodamines for labelling and imaging” (Max-Planck-Gesellschaft zur Foerderung der Wissenschaften …, priority 2009, dated 2013).
# Entries after “also recorded” stand apart in the source; their conditions may differ. Where two headings read alike, the source gives them in different places.
# Experiments:
# [1] = cited from earlier work
# [2] = cited from earlier work; for Φfl: no solvent given in the cell
# [3] = UV-visible absorption and fluorescence spectra of the dyes of the invention; type: physicochemical; conditions: for ε · 10^−5 / λmax (abs.) / λmax (fl.): solvent MeOH
# Protocol: UV-visible absorption spectra were recorded on a Varian Cary 4000 UV-Vis spectrophotometer, and fluorescence spectra on a Varian Cary Eclipse fluorescence spectrophotometer. Reactions were carried out upon magnetic stirring in Schlenk flasks equipped with septa or reflux condensers with bubble-counters under argon using a standard manifold with vacuum and argon lines. All NMR spectra are referenced to tetramethylsilane as an internal standard (δ=0 ppm) using the signals of the residual protons of CHCl3 (7.26 ppm) in CDCl3, CHD2OD (3.31 ppm) in CD3OD, HOD (4.75 ppm) in D2O, [D5]acetone (2.04 ppm) in [D6]acetone or [D5]DMSO (2.50 ppm) in [D6]DMSO. Multiplicities of signals are described as follows: s=singlet, br. s=broad singlet, d=doublet, t=triplet, q=quartet, quint=quintet, m=multiplet, mc=centrosymmetrical multiplet. Coupling constants (J) are given in Hz. Multiplicities in the ^13C NMR spectra were determined by APT (Attached Proton Test) measurements. Low resolution mass spectra (electro spray ionization, ESI) were obtained with LCQ and ESI-TOF mass-spectrometers (MICROTOF (focus), Fa. Bruker). The MICROTOF spectrometer equipped with ESI ion source Apollo and direct injector with LC autosampler Agilent RR 1200 was used for obtaining high resolution mass spectra (ESI-HRMS). ESI-HRMS were obtained also on APEX IV spectrometer (Bruker). HPLC system (Knauer): Smartline pump 1000 (2×), UV detector 2500, column thermostat 4000 (25° C.), mixing chamber, injection valve with 20 and 100 μL loop for the analytical and preparative columns, respectively; 6-port-3-channel switching valve; analytical column: Eurospher-100 C18, 5 μm, 250×4 mm, 1.1 mL/min; preparative column: Eurospher-100-5 C18, 5 μm, 250×8 mm, 3.7 mL/min; solvent A: water+0.1% v/v trifluoroacetic acid (TFA); solvent B: MeCN+0.1% v/v TFA; detection at 636 nm (if not stated otherwise). Normal phase analytical TLC was performed on MERCK ready-to-use plates with silica gel 60 (F254) and reversed phase TLC—on RP-18W/UV254 precoated TLC plates (Macherey-Nagel). Preparative TLC was performed on MERCK HPTLC silica gel 60 plates (10×10 cm, layer thickness 0.2 mm). Column chromatography: MERCK silica gel, grade 60, 0.04-0.063 mm or Polygoprep 60-50 C18 (Macherey-Nagel).
# [4] = Fluorescence quantum yield, Atto 633 as reference; type: physicochemical; conditions: Atto 633 as reference (Φfl = 64% in aqueous buffer)
# Text: Moreover, intersystem crossing rates (kISC) and rates of the T1→S0 transitions were also found to be the same for both deuterated and undeuterated substances (see ref. to Table 2).
# [5] = Solubility and polarity of the dyes
# [6] = Chemical and storage stability of dyes and reactive derivatives; type: physicochemical; conditions: for chemical stability of the active ester: isolation and storage
# Text: Usually, amino- or thiol reactive derivatives of the fluorescent dyes are used for labelling of proteins. For conjugation with amines, the free carboxy group needs to be activated by the formation of N-hydroxy(sulfo)succinimidyl esters, phenyl esters with electron-acceptor groups in the benzene ring or similar compounds with good leaving groups. […] Ester 8 partly decomposed in the course of chromatographic isolation using silica gel. Therefore, the reaction mixture containing the active ester 8 was used for labelling the lipids in their non-polar domain and other coupling procedures. […] They were isolated by reversed-phase HPLC using the gradient elution with aqueous acetonitrile with 0.1% (v/v) of TFA, lyophilized and stored at −20° C. under argon. Under these conditions, the content of the corresponding acids 6/6D in the very light dark blue voluminous solids increased from 3-5% up to 7-10% in 2 months. The higher stability of the NHS esters 9 and 10 may be explained by the absence of any nucleophilic counter ion. The maleimide derivative 11 has been prepared straight from compounds 9 and 10 by combining them in DMF with Et3N as base. It was also isolated by HPLC.
# [7] = as above; type: physicochemical; conditions: at RT
smiles,measurement,setting,value
O=C(O)CCCCCNC(=O)COc1ccc(/C=C/C2=[N+]3C(=Cc4ccc(-c5cccs5)n4[B-]3(F)F)C=C2)cc1 [BODIPY ® 630/650],Solubility (solvents),[1],"DMSO, MeCN"
same,τfl,[2]; EtOH,4.4 (EtOH)^1 ns
same,τfl,[2]; H2O,3.9 (H2O) ns
same,Φfl,[2],“good”
same,ε · 10^−5,[2]; solvent MeOH,1.01 M^−1 cm^−1
same,λmax (abs.),[2]; solvent MeOH,625 nm
same,λmax (fl.),[2]; solvent MeOH,640 nm
CC1=CC(C)(C)N2CCCc3c4c(cc1c32)C(c1c(F)c(F)c(F)c(F)c1C(=O)N(C)CCC(=O)O)=c1cc2c3c(c1O4)CCC[N+]=3C(C)(C)C=C2C [Compound 5-H],Stokes shift,[3]; dyes of the invention,23 nm
same,ε · 10^−5,[3],0.73 M^−1 cm^−1
same,λmax (abs.),[3],638 nm
same,λmax (fl.),[3],661.5 nm
same,Φfl in water,[4],53%
same,Solubility (solvents),[5],"DMF, THF, CHCl3;"
same,polarity,[5],non-polar
same,solubility in organic solvents,[5],moderately soluble in polar organic solvents; also recorded: very good
same,solubility in water or aqueous buffers,[5],very slightly soluble in water
COC(=O)CCN(C)C(=O)c1c(F)c(F)c(F)c(F)c1C1=c2cc3c4c(c2Oc2c1cc1c5c2CCCN5C(C)(C)C=C1C)CCC[N+]=4C(C)(C)C=C3C [Compound 5-Me],ε · 10^−5,[3],0.66 M^−1 cm^−1
same,λmax (abs.),[3],638 nm
same,λmax (fl.),[3],661.5 nm
same,Φfl in water,[4],62%
same,Solubility (solvents),[5],"DMF, THF, CHCl3;"
same,polarity,[5],non-polar
same,solubility in organic solvents,[5],soluble in most organic solvents (except alkanes)
same,solubility in water or aqueous buffers,[5],insoluble in water
CC1=CC(C)(C)N2CCCc3c4c(cc1c32)C(c1c(F)c(F)c(F)c(F)c1C(=O)N(C)CCC(=O)OC(C)(C)C)=c1cc2c3c(c1O4)CCC[N+]=3C(C)(C)C=C2C [Compound 5-tBu],ε · 10^−5,[3],0.92 M^−1 cm^−1
same,λmax (abs.),[3],638 nm
same,λmax (fl.),[3],661 nm
same,Φfl in water,[4],61%
same,Solubility (solvents),[5],"DMF, THF, CHCl3;"
same,polarity,[5],non-polar
same,solubility in organic solvents,[5],soluble in most organic solvents (except alkanes)
same,solubility in water or aqueous buffers,[5],insoluble in water
COC(=O)c1c(F)c(F)c(F)c(F)c1C1=c2cc3c4c(c2Oc2c1cc1c5c2CCCN5C(C)(C)C=C1C)CCC[N+]=4C(C)(C)C=C3 [Compound 7],λmax (abs.),[3],632 nm
same,λmax (fl.),[3],655.5 nm
same,Solubility (solvents),[5],"CHCl3, THF"
same,polarity,[5],non-polar
CC1=CC(C)(C)N2CCCc3c4c(cc1c32)C(c1c(F)c(F)c(F)c(F)c1C(=O)N(C)CCC(=O)Oc1c(F)c(F)cc(F)c1F)=c1cc2c3c(c1O4)CCC[N+]=3C(C)(C)C=C2C [Compound 8],chemical stability of the active ester,[6],Low chemical stability
CN(CCC(=O)ON1C(=O)CCC1=O)C(=O)c1c(F)c(F)c(F)c(F)c1C1=c2cc3c4c(c2Oc2c1cc1c5c2CCCN5C(C)(C)C=C1CS(=O)(=O)O)CCC[N+]=4C(C)(C)C=C3CS(=O)(=O)[O-] [Compound 9],chemical stability of the active ester,[6],remarkably stable
same,stability in a solid state,[6]; under Ar,stable
same,solubility in water or aqueous buffers,[5],soluble in water
same,stability in aqueous solutions,[7],decomposes
CCN(CC)c1ccc2c(C=CC=C3N(CCCCCC(=O)O)c4ccc(S(=O)(=O)[O-])cc4C3(C)C)cc(C(C)(C)C)[o+]c2c1 [DY-630],Solubility (solvents),[1],"MeOH, EtOH,; also recorded: DMF, DMSO"
same,τfl,[2]; H2O,0.21 ns
same,Φfl,[2],Varies^6
same,ε · 10^−5,[2]; solvent EtOH,2.0 M^−1 cm^−1
same,λmax (abs.),[2]; solvent EtOH,636 nm
same,λmax (fl.),[2]; solvent EtOH,657 nm
same,λmax (abs.),[2]; solvent H2O,627^1 nm
same,λmax (fl.),[2]; solvent H2O,651^1 nm
CC[N+](CC)=c1ccc2c(/C=C/C=C3/N(CCCS(=O)(=O)[O-])c4ccc(S(=O)(=O)[O-])cc4C3(C)CCCC(=O)O)cc(C(C)(C)C)oc-2c1.[Na+] (centres unmarked) [DY-631],Solubility (solvents),[1],"H2O, MeOH,; also recorded: DMF, DMSO"
same,ε · 10^−5,[2]; solvent EtOH,2.0 M^−1 cm^−1
CC[N+](CCCS(=O)(=O)[O-])=c1ccc2c(C=CC=C3N(CCCCCC(=O)O)c4ccc(S(=O)(=O)[O-])cc4C3(C)C)cc(C(C)(C)C)oc-2c1.[Na+] [DY-633],Solubility (solvents),[1],"H2O, MeOH,; also recorded: DMF, DMSO"
same,ε · 10^−5,[2]; solvent EtOH,2.0 M^−1 cm^−1
CC(C)(C)c1cc(C=CC=C2N(CCCC(=O)O)c3ccc(S(=O)(=O)[O-])cc3C2(C)CCCS(=O)(=O)[O-])c2ccc(=[N+](CCCS(=O)(=O)[O-])CCCS(=O)(=O)[O-])cc-2o1.[Na+].[Na+].[Na+] (centres unmarked) [DY-634],Solubility (solvents),[1],"H2O, MeOH,; also recorded: DMF, DMSO"
same,ε · 10^−5,[2]; solvent EtOH,2.0 M^−1 cm^−1
CC(C)(C)c1cc(C=CC=C2N(CCCCCC(=O)O)c3ccc(S(=O)(=O)[O-])cc3C2(C)C)c2cc3c4c(c2[o+]1)CCCN4CCC3 [DY-635],Solubility (solvents),[1],"MeOH, EtOH,; also recorded: DMF, DMSO"
same,τfl,[2]; H2O,0.48 ns
same,ε · 10^−5,[2]; solvent EtOH,2.0 M^−1 cm^−1
same,λmax (abs.),[2]; solvent EtOH,647 nm
same,λmax (fl.),[2]; solvent EtOH,671 nm
same,λmax (abs.),[2]; solvent H2O,635^1 nm
same,λmax (fl.),[2]; solvent H2O,669^1 nm
CC(C)(C)C1=CC(=CC=CC2=[N+](CCCS(=O)(=O)[O-])c3ccc(S(=O)(=O)[O-])cc3C2(C)CCCC(=O)O)c2cc3c4c(c2O1)CCCN4CCC3.[Na+] (centres unmarked) [DY-636],Solubility (solvents),[1],"H2O, EtOH,; also recorded: DMF, DMSO"
same,ε · 10^−5,[2]; solvent EtOH,2.0 M^−1 cm^−1
same,λmax (abs.),[2]; solvent EtOH,645 nm
same,λmax (fl.),[2]; solvent EtOH,671 nm
CCN1c2cc3[o+]c(C(C)(C)C)cc(C=CC=C4N(CCCCCC(=O)O)c5ccc(S(=O)(=O)[O-])cc5C4(C)C)c3cc2C(C)=CC1(C)C [DY-650],Solubility (solvents),[1],"MeOH, EtOH,; also recorded: DMF, DMSO"
same,τfl,[2]; H2O,0.64 (H2O)^1 ns
same,ε · 10^−5,[2]; solvent EtOH,2.2 M^−1 cm^−1
same,λmax (abs.),[2]; solvent EtOH,653 nm
same,λmax (fl.),[2]; solvent EtOH,674 nm
same,λmax (abs.),[2]; solvent H2O,646^1 nm
same,λmax (fl.),[2]; solvent H2O,670 nm
CCN(CCCS(=O)(=O)[O-])c1ccc2nc3ccc(=[N+](C)CCC(=O)O)cc-3oc2c1 [Evoblue 30],Solubility (solvents),[1],"H2O, MeOH,; also recorded: DMF, DMSO"
same,τfl,[2]; H2O,0.64 (H2O)^1 ns
same,ε · 10^−5,[2]; solvent EtOH,1.0 M^−1 cm^−1
same,λmax (abs.),[2]; solvent EtOH,647 nm
same,λmax (fl.),[2]; solvent EtOH,664 nm
same,λmax (abs.),[2]; solvent H2O,650^1 nm
same,λmax (fl.),[2]; solvent H2O,667^1 nm
